# Results reported in patent US20260273107A1, “COMPOUND PHARMACEUTICAL PREPARATION CONTAINING OIL COMPONENT COMPRISING POLYOXYETHYLENE STRUCTURE” (CHUGAI SEIYAKU KABUSHIKI KAISHA, priority 2022, published 2026).
# Bridge positions count the residues as written; N and C are the ends. Square brackets hold non-standard residues; d marks the D form. Peptide text beside a SMILES is read from it. * marks the point of attachment. hPhe(3,5-F2-4-CF3) = N[C@@H](CCc1cc(F)c(C(F)(F)F)c(F)c1)C(=O)O; hPhe(3-Cl-4-CF3) = N[C@@H](CCc1ccc(C(F)(F)F)c(Cl)c1)C(=O)O; NMePhe(4-Me) = CN[C@@H](Cc1ccc(C)cc1)C(=O)O; NMeGly(cPent) = CN[C@H](C(=O)O)C1CCCC1; NMeCha = CN[C@@H](CC1CCCCC1)C(=O)O; Hyp = O=C(O)[C@@H]1C[C@@H](O)CN1; NMeI = CC[C@H](C)[C@H](NC)C(=O)O; NMeD = CN[C@@H](CC(=O)O)C(=O)O; NMeL = CN[C@@H](CC(C)C)C(=O)O; NMeA = CN[C@@H](C)C(=O)O; Piperidide = C1CCN(*)CC1; Ac5c = NC1(C(=O)O)CCCC1; Aze = O=C(O)[C@@H]1CCN1; Sar = CNCC(=O)O
# Key:
# [1] = Solubility of cyclic peptide compound in 50 mM phosphate buffer solution (pH 6.5), 37° C. (Example 3-3); assay type: physicochemical; details: shaking 22 to 24 hours, read-out: solubility in 50 mM phosphate buffer solution (PPB)
# Method: Evaluation of the solubility of the cyclic peptide compound was performed. To lyophilized powder of the compound, a 50 mM phosphate buffer solution (PPB: Phosphate buffer, pH 6.5) was added, and after shaking (at 37° C., 1800 rpm, for 22 to 24 hours), the mixed solution was filtered through a filter, and the compound concentration of the filtrate was measured by LC/MS/MS. Solubility was calculated from the measured compound concentration. The solubilities of the compounds 3, 4, 6, 7, and 8 were 11 μg/mL, 1 μg/mL, 1 μg/mL, 15 μg/mL, and 5 μg/mL, respectively.
# [2] = Solubility in aqueous solution containing 0.3% or 1% Cremophor EL (Example 3-3); assay type: physicochemical; details: 25° C., 22 to 24 hours
# Method: Evaluation of the solubility of the cyclic peptide compound in the presence of a surfactant was performed. To lyophilized powder of the compound, an aqueous solution containing 0.3% or 1% Cremophor EL (CreEL) was added, and after shaking (at 25° C., 1000 rpm, for 22 to 24 hours), the mixed solution was filtered through a filter, and the compound concentration of the filtrate was measured by LC/UV. Solubility (μg/mL) was calculated from the measured compound concentration.
# [3] = Evaluation of Caco-2 membrane permeability; assay type: in vitro ADME; details: human, Apical FaSSIF/HBSS pH 6.0 to Basal HBSS 4% BSA pH 7.4, 180 minutes, after 18 to 24 hours preincubation, read-out: Caco2 (Papp)
# Method: The permeability coefficient (Caco-2 Papp (cm/sec)) is calculated using a numerical expression 1.
# [formula] • where dQ/dt is the permeation rate of the drug (amount of drug appearing on the Basal side per unit time), S is the total cell surface area, and C1 (0) is the concentration of drug added on the Apical side.
# Caco-2 cells were cultured on 96-well Transwell for 3 weeks, then DMEM, FaSSIF (1% DMSO), and the compound were added to the Apical side, DMEM was added to the Basal side, and the cells were preincubated under 5% CO2 at 37° C. with shaking at 80 rpm for 18 to 24 hours. After the preincubation, the preincubation solutions on the Apical side and Basal side were sucked off and washed, a FaSSIF/HBSS buffer solution (1% DMSO) (pH 6.0) containing the compound was added to the Apical side, a HBSS buffer solution (4% BSA) (pH 7.4) was added to the Basal side, and measurement of membrane permeability was started. Each well was shaken under 5% CO2 at 37° C. and 80 rpm, and at 180 minutes after the start of shaking, a sample on the Basal side was collected, and the permeation amount was measured by LC/MS. From the permeation amount, the membrane permeability coefficient (Papp) was calculated. Note that the description “Caco-2 (cm/sec)” in the column in the table herein is used synonymously with “Papp (cm/sec)”.
# [4] = 0.3% Cremophor EL aqueous solution, read-out: solubility, 0.3% Cremophor EL
# [5] = 1% Cremophor EL aqueous solution, read-out: solubility, 1% Cremophor EL
solubility [1] [µg/mL],"solubility [2, 4] [µg/mL]","solubility [2, 5] [µg/mL]",Papp A→B at 180 min [3] [×10⁻⁶ cm/s],SMILES
15,492,1640,2.96,CC[C@H](C)[C@@H]1NC(=O)[C@H](CC(C)C)N(C)C(=O)C[C@@H](C(=O)N(C)C)N(C)C(=O)[C@H]([C@@H](C)CC)N(C)C(=O)C2(CCCC2)NC(=O)[C@@H]2CCCN2C(=O)[C@H](CCc2ccc(C(F)(F)F)c(Cl)c2)NC(=O)CN(C)C(=O)[C@H](Cc2ccc(C)cc2)N(C)C(=O)[C@@H]2CCN2C(=O)[C@H](C)N(C)C1=O [Compound 7] ([NMeL]I[NMeA][Aze][NMePhe(4-Me)][Sar][hPhe(3-Cl-4-CF3)]P[Ac5c][NMeI][NMeD]-NMe2; lactam N-11)
5,356,1340,2.39,"CCO[C@@H]1C[C@H]2C(=O)NC3(CCCC3)C(=O)N(C)[C@@H](C3CCCC3)C(=O)N(C)[C@H](C(=O)N(C)C)CC(=O)N(C)[C@@H](CC(C)C)C(=O)N[C@@H]([C@@H](C)CC)C(=O)N(C)[C@@H](C)C(=O)N3CC[C@H]3C(=O)N(C)[C@@H](CC3CCCCC3)C(=O)N(C)CC(=O)N[C@@H](CCc3cc(F)c(C(F)(F)F)c(F)c3)C(=O)N2C1 [Compound 8] ([NMeL]I[NMeA][Aze][NMeCha][Sar][hPhe(3,5-F2-4-CF3)][Hyp](Et)[Ac5c][NMeGly(cPent)][NMeD]-NMe2; lactam N-11)"
,450,1510,0.14,CC[C@H](C)[C@@H]1NC(=O)[C@H](CC(C)C)N(C)C(=O)C[C@@H](C(=O)N2CCOCC2)N(C)C(=O)[C@H](C2CCCC2)N(C)C(=O)C2(CCCC2)NC(=O)[C@@H]2CCCN2C(=O)[C@H](CCc2ccc(C(F)(F)F)c(Cl)c2)NC(=O)CN(C)C(=O)[C@H](Cc2ccc(C(F)(F)F)cc2)N2CCCCC[C@@H](C2=O)N(C)C(=O)CN(C)C1=O [Compound 9]
,583,1680,0.7,CCO[C@@H]1C[C@H]2C(=O)NC3(CCC3)C(=O)N(C)[C@@H](C3CCCC3)C(=O)N(C)[C@H](C(=O)N(C)C)CC(=O)N(C)[C@@H](CC)C(=O)N[C@@H]([C@@H](C)CC)C(=O)N(C)CC(=O)N(C)[C@H]3C/C=C\CCN(C3=O)[C@@H](Cc3ccc(C(F)(F)F)cc3)C(=O)N(C)CC(=O)N[C@@H](CCc3cc(F)c(C(F)(F)F)c(F)c3)C(=O)N2C1 [Compound 10]

SMILES,solubility [1] [µg/mL],"solubility [2, 4] [µg/mL]","solubility [2, 5] [µg/mL]",Papp A→B at 180 min [3] [×10⁻⁶ cm/s]
CC[C@H](C)[C@@H]1NC(=O)[C@H](CC(C)C)N(C)C(=O)C[C@@H](C(=O)N2CCCCC2)N(C)C(=O)[C@H](C2CCCC2)N(C)C(=O)C2(CCCC2)NC(=O)[C@@H]2CCCN2C(=O)[C@H](CCc2ccc(C(F)(F)F)c(Cl)c2)NC(=O)CN(C)C(=O)[C@H](CC2CCCCC2)N(C)C(=O)[C@@H]2CCN2C(=O)[C@H](C)N(C)C1=O [Compound 6] ([NMeL]I[NMeA][Aze][NMeCha][Sar][hPhe(3-Cl-4-CF3)]P[Ac5c][NMeGly(cPent)][NMeD]-Piperidide; lactam N-11),1,434,1450,0.61
